The melting point is the temperature of the solid-liquid transition. The term IC50 denotes the concentration at which inhibition is half-maximal.

The text below walks through data of patent publication US20030087881A1, “Irreversible inhibitors of tyrosine kinases” (priority 1997, published 2003).

Series [1] has as its target Human EGF receptor tyrosine kinase (Homo sapiens, UniProt P00533). To be noted: read-out: IC50 (nM) EGFr (isolated enzyme assay); isolated enzyme from A431 cells; 10 μM ATP.
Procedure: Human EGF receptor tyrosine kinase was isolated from A431 human epidermoid carcinoma cells by the following method. Cells were grown in roller bottles in dMEM/F12 media (Gibco/BRL) containing 10% fetal calf serum. Approximately 10^9 cells were lysed in 2 volumes of buffer containing 20mM N-[2-hydroxyethyl]piperazine-N′-[2-ethane sulfonic acid](Hepes), pH 7.4, 5 mM ethylene glycol-bis(β-aminoethyl ether) N,N,N′,N′-tetraacetic acid (EGTA), 1% Triton X-100, 10% glycerol, 0.1 mM sodium orthovanadate, 5 mM sodium fluoride, 4 mM pyrophosphate, 4 mM benzamide, 1 mM dithiothreitol (DTT), 80 μg/mL aprotinin, 40 μg/mL leupeptin, and 1 mM phenylmethyl sulfonyl fluoride (PMSF). After centrifugation at 25,000×g for 10 minutes, the supernatant was applied to a fast Q sepharose column (Pharmacia Biotech., Inc., Piscataway, N.J.) and eluted with a linear gradient from 0.1 M NaCl to 0.4 M NaCl in 50 mM Hepes, 10% glycerol, pH 7.4. Enzyme active fractions were pooled, divided into aliquots, and stored at −100° C.
Enzyme assays for IC50determinations were performed in 96-well filter plates (Millipore MADVN6550, Millipore, Bedford, Mass.). […] The wells are then washed 5 times with 0.2 mL of 10% TCA and ^32P incorporation determined with a Wallac beta plate counter (Wallac, Inc., Gaithersburg, Pa.).
Series [2] has as its system A431 human epidermoid carcinoma cells. Put plainly: cells. To be noted: A-431, read-out: IC50 (nM) A431 Cell Autophosphorylation Assay. Here is the method:
(§1) Extracts were made by lysing the monolayers in 0.2 mL of boiling Laemlli buffer (2% sodium dodecyl sulfate, 5% beta-mercaptoethanol, 10% glycerol and 50 mM tris[hydroxymethyl]aminomethane (Tris), pH 6.8), and the lysates were heated to 100° C. for 5 minutes. Proteins in the lysate were separated by polyacrylamide gel electrophoresis and electrophoretically transferred to nitrocellulose. The membrane was washed once in 10 mM Tris, pH 7.2, 150 mM NaCl, 0.01% Azide (TNA), and blocked overnight in TNA containing 5% bovine serum albumin and 1% ovalbumin. The membrane was blotted for 2 hours with antiphosphotyrosine antibody (UBI, 1 μg/mL in blocking buffer) and then washed twice in TNA, once in TNA containing 0.05% Tween-20 detergent and 0.05% nonidet P-40 detergent and twice in TNA. […] Band intensities were determined with a Molecular Dynamics laser densitometer.
Duplicate sets of cells were treated with a range of concentrations of the designated compound to be tested as an inhibitor for 15 minutes. The cells were then stimulated with 100 ng/mL of EGF for 5 minutes and extracts made as described under the Western Blotting Procedure.

The test system is the same in series [3]. To be noted: 2 μM compound for 1 or 2 hours, washed free, EGF stimulation. Here is the method: as §1

Sequence of Human EGF receptor tyrosine kinase (P00533 25-1210): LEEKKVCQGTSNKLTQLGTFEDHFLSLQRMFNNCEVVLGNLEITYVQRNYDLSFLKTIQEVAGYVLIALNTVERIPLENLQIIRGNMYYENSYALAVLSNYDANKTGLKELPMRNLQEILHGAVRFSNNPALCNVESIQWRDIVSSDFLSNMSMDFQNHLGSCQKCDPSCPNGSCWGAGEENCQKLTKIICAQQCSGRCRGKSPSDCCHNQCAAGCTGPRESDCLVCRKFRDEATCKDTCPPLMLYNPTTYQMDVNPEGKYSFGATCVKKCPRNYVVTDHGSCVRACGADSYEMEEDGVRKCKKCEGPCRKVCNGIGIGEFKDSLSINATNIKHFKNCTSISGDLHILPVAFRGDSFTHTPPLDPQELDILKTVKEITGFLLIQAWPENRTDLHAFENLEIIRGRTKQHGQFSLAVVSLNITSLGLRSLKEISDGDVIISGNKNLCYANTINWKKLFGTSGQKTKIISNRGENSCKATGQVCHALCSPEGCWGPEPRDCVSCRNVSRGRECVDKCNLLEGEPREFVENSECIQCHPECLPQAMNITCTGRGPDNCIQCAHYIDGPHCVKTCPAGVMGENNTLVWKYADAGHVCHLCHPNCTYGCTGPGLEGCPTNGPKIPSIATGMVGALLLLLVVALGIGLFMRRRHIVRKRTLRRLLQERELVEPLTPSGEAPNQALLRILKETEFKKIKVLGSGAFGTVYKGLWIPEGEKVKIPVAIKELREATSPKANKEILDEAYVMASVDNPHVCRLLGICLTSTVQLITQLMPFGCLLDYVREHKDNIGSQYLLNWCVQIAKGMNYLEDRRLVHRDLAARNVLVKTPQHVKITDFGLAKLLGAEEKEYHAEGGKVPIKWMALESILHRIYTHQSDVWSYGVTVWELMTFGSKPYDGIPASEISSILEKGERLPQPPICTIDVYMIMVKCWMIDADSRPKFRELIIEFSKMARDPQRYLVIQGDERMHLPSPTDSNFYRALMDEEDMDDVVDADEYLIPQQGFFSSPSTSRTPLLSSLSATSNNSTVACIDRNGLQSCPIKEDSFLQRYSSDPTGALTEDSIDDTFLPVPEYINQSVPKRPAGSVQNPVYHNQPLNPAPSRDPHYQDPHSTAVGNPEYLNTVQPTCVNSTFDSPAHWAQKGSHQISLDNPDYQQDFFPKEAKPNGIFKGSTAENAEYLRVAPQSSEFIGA

`C=CC(=O)Nc1ccc2ncnc(N3CCc4ccc(Br)cc43)c2c1` [Example 1, N-[4-(6-Bromo-2,3-dihydroindol-1-yl)quinazolin-6-yl]acrylamide] returned a melting point of 214 to 216 °C. For the same compound, the IC50 in series [1] was determined as 0.4 nM. Moreover, in series [2], the IC50 stood at 9.9 nM. Moreover, the “Irreversibility Test” value in series [3] was “yes, irreversible”.
